# In publication PMC11473416, “Coumarin-chalcone derivatives as dual NLRP1 and NLRP3 inflammasome inhibitors targeting oxidative stress and inflammation in neurotoxin-induced HMC3 and BE(2)-M17 cell models of Parkinson's disease” (Frontiers in Aging Neuroscience, 2024):
# Read-outs that look alike come from different tables or passages of the source.
# How the values were obtained:
# [1] = tested on: MPP^+-activated HMC3 cells; assay: cell viability (MTT) in MPP^+-activated HMC3 cells; assay type: cell-based; conditions: Homo sapiens; HMC3, compound 10 μM 8 h pre-treatment, then 4 mM MPP^+ 20 h; MPP^+ alone 63%; MPP^+-untreated = 100%
# Experimental: To examine anti-inflammatory potential of LM compounds, HMC3 cells were plated into six-well (2 × 10^5/well) dishes, grown for 20 h, and pre-treated with compounds (10 μM) for 8 h before 4 mM MPP^+ addition for 20 h. The cell viability was evaluated by MTT assay as described, and the release of nitric oxide (NO) in cell culture medium was examined by Griess reagent kit (Thermo Fisher Scientific) based on a classic protocol.
# [2] = design: method as in Chiu et al., 2021; conditions: in vivo pharmacokinetic assessment ref Chiu et al., 2021; cited from earlier work
# [3] = design: method as in Huang C. C. et al., 2021; conditions: parallel artificial membrane permeability assay ref Huang C. C. et al., 2021; cited from earlier work
# [4] = tested on: IL-1β; assay: Western blot IL-1β in MPP^+-stimulated HMC3 cells; assay type: cell-based, human; conditions: HMC3, 4 mM MPP^+ alone; untreated = 100%
# Experimental: (§1) HMC3 (2 × 10^5/6-well) or BE(2)-M17 (4 × 10^5/6-well) cells were lysed in buffer (composition: 50 mM Tris-HCl pH8.0, 2 mM EDTA pH8.0, 150 mM NaCl, 0.5% sodium deoxycholate, 0.1% SDS, 50 mM NaF, 1% NP40) containing the protease and/or phosphatase inhibitor cocktail (Sigma-Aldrich). After sonication, the lysates were centrifuged (12,000 × g for 10 min at 4°C) and protein concentrations determined (Bradford protein assay; Bio-Rad, Hercules, CA, USA). Aliquots of protein (20 μg) were separated by electrophoresis using 10%−12% SDS–polyacrylamide gel followed by transfer to a polyvinylidene fluoride (PVDF) membrane. […] The immune complexes were detected using horseradish peroxidase (HRP)-conjugated goat anti-mouse or goat anti-rabbit IgG antibody (1:5,000; GeneTex) and chemiluminescent HRP substrate (Millipore, Burlington, MA, USA). Immunoreactive bands were captured (ImageQuant™ LAS 4000, GE Healthcare, Chicago, IL, USA) and quantified (Multi Gauge V3.0 software, Fujifilm, Tokyo, Japan).
# [5] = tested on: HMC3 cells; assay: cytotoxicity MTT assay in HMC3 cells; assay type: cell-based, human; conditions: MPP^+ at 4 mM
# Experimental: Human HMC3 microglial (CRL-3304) and neuroblastoma BE(2)-M17 (CRL-2267) cells were obtained from American Type Culture Collection. BE(2)-M17 develops a better dopaminergic phenotype than SH-SY5Y when treated with retinoic acid to direct neuronal differentiation (Carvajal-Oliveros et al., [2022]). Cells were routinely maintained in Dulbecco's Modified Eagle Medium-Nutrient Mixture F12 (DMEM-F12) supplemented with 10% fetal bovine serum (FBS; Thermo Fisher Scientific, Waltham, MA, USA) in a 37°C incubator, with 95% relative humidity and 5% CO2 (NuAire, Plymouth, MN, USA).
# To evaluate cytotoxicity of LM compounds and MPP^+, HMC3 (1 × 10^4) or BE(2)-M17 (2 × 10^4) cells were plated on 96-well dishes, grown for 20 h, and treated with LM compounds (1–100 μM) or MPP^+ [HMC3: 0–8 mM; BE(2)-M17: 0–5 mM]. Next day, 20 μl of tetrazolium dye 3-(4,5-dimethylthiazol-2-yl)-2,5-diphenyltetrazolium bromide (MTT, 5 mg/ml; Sigma-Aldrich) was added to the cells at 37°C for 3 h. The resulted insoluble purple formazan products were dissolved by lysis buffer (composition: 10% Triton X-100, 0.1 N HCl, 18% isopropanol). The absorbance of the dissolved product at optical density (OD) 570 nm was read by using a FLx800 fluorescence microplate spectrophotometer (Bio-Tek, Winooski, VT, USA). The half maximal inhibitory concentration (IC50) of LM compounds was determined through the construction of a dose-response curve. MPP^+ at 4 mM (HMC3 cell viability: 65%−69%) or 0.62 mM [BE(2)-M17 cell viability: 79%−84%] was selected to induce inflammation for further experiments.
# [6] = tested on: IL-6; assay: Western blot IL-6 in MPP^+-stimulated HMC3 cells; assay type: cell-based, human; conditions: HMC3, 4 mM MPP^+ alone; untreated = 100%
# Experimental: as §1
# [7] = tested on: NLRP3; assay: Western blot NLRP3 in MPP^+-stimulated HMC3 cells; assay type: cell-based, human; conditions: HMC3, 4 mM MPP^+ alone; untreated = 100%
# Experimental: as §1
# [8] = tested on: TNF-α; assay: Western blot TNF-α in MPP^+-stimulated HMC3 cells; assay type: cell-based, human; conditions: HMC3, 4 mM MPP^+ alone; untreated = 100%
# Experimental: as §1
# [9] = tested on: caspase-6; assay: caspase-6 activity assay in MPP^+-treated BE(2)-M17 cells; assay type: cell-based, human; conditions: BE(2)-M17, 0.62 mM MPP^+ alone; untreated = 100%
# Experimental: BE(2)-M17 cells were plated onto six-well (4 × 10^5/well) and treated with retinoic acid, LM compounds (10 μM), and MPP^+ as described. Cells were collected on day 7 and lysed by six freeze/thaw cycles. Types of substrates applied were: Ac-Tyr-Val-Ala-Asp-7-amino-4-trifluoromethyl coumarin (YVAD-AFC) for caspase-1, Ac-Val-Glu-Ile-Asp-7-amino-4-trifluoromethyl coumarin (VEID-AFC) for caspase-6 (BioVision, Milpitas, CA, USA), and Ac-Asp-Glu-Val-Asp-7-amido-4-methylcoumarin (DEVD-AMC) for caspase-3 (Sigma-Aldrich). The reaction mixtures were incubated for 1.5 h at 37°C per the manufacturer's instructions. The fluorescence intensity at 400 nm excitation and 505 nm emission (caspase-1 and caspase-6) or 360 nm excitation and 460 nm emission (caspase-3) wavelengths were recorded (BioTek FLx800).
# [10] = tested on: iNOS; assay: Western blot iNOS in MPP^+-stimulated HMC3 cells; assay type: cell-based, human; conditions: HMC3, 4 mM MPP^+ alone; untreated = 100%
# Experimental: as §1
smiles,measurement,setting,value
Cc1ccc(/C=C/C(=O)c2c(O)c3ccccc3oc2=O)cc1 [LM-016],viability at 10 µM,[1],81 to 86%
"CN(C)c1ccc(/C=C/C(=O)c2c(O)c3ccccc3oc2=O)cc1 [LM-021, (E)-3-(3-(4-(dimethylamino)phenyl)acryloyl)-4-hydroxy-2H-chromen-2-one]",bioavailability and BBB penetration potential,[2],good bioavailability and BBB penetration potential
O=C(/C=C/c1ccccc1O)c1c(O)c2ccccc2oc1=O [LM-036],bioavailability and BBB penetration potential,[3],good bioavailability and BBB penetration potential
"C[n+]1ccc(-c2ccccc2)cc1 [MPP^+, 1-methyl-4-phenyl pyridinium, reference compound]",IL-1β expression,[4],326%
same,cell viability,[5],65%−69%
same,IL-6 expression,[6],182%
same,NLRP3 expression,[7],233%
same,TNF-α expression,[8],223%
same,caspase-6 activity,[9],116%
same,iNOS expression,[10],156%
